Results: PubChem BioAssay AID1845205 (Molecular Pharmacology Branch, DTP, NCI, 2023)

Tested on: MPNST multicellular tumor spheroids, viability % test/control
Assay: Anticancer human tumor MPNST cell line growth inhibition;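 also: spheroids exposed to agents for seven days after three days of growth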;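 as to viability, T/C: luminescence signal used as surrogate for viable cell amount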
Settings: for IC50: curve of first compound; for viability, T/C: stronger effect = lower value
How it was run: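 Complex tumor spheroids combined malignant cells with endothelial cells and mesenchymal stem cells. DNA-damaging drugs and DNA repair inhibitors were tested alone and in combination, at half-log dilutions down from clinical Cmax (top 10 microM if Cmax unknown), 0.25% DMSO final.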

[1] = second compound 1 µM, first compound 0.0949 µM
[2] = second compound 1 µM, first compound 0.3 µM
[3] = second compound 1 µM, first compound 0.949 µM
[4] = second compound 1 µM, first compound 3 µM
[5] = second compound 3.16 µM, first compound 0.0949 µM
[6] = second compound 3.16 µM, first compound 0.3 µM
[7] = second compound 3.16 µM, first compound 0.949 µM
[8] = second compound 3.16 µM, first compound 3 µM
[9] = second compound 10 µM, first compound 0.0949 µM
[10] = second compound 10 µM, first compound 0.3 µM
[11] = second compound 10 µM, first compound 0.949 µM
[12] = second compound 10 µM, first compound 3 µM
[13] = second compound 31.6 µM, first compound 0.0949 µM
[14] = second compound 31.6 µM, first compound 0.3 µM
[15] = second compound 31.6 µM, first compound 0.949 µM
[16] = second compound 31.6 µM, first compound 3 µM
[17] = second compound 100 µM, first compound 0.0949 µM
[18] = second compound 100 µM, first compound 0.3 µM
[19] = second compound 100 µM, first compound 0.949 µM
[20] = second compound 100 µM, first compound 3 µM

For `CNCc1ccc(-c2cc(-c3nc(-c4ccc(S(=O)(=O)C(C)C)cc4)cnc3N)on2)cc1` + Cn1nnc2c(C(N)=O)ncn2c1=O, the IC50 (second compound 1 µM) was greater than 3 µM, the IC50 (second compound 3.16 µM) was greater than 3 µM and the IC50 (second compound 10 µM) was greater than 3 µM. The IC50 (second compound 31.6 µM) was greater than 3 µM, the IC50 (second compound 100 µM) was greater than 3 µM and the viability, T/C (second compound 1 µM, first compound 0.00949 µM) was 110%. The viability, T/C (second compound 1 µM, first compound 0.03 µM) was 102%, the viability, T/C [1] was 83% and the viability, T/C [2] was 77.9%. The viability, T/C [3] was 63.1%, the viability, T/C [4] was 63.8% and the viability, T/C (second compound 3.16 µM, first compound 0.00949 µM) was 125%. It also gave a viability, T/C (second compound 3.16 µM, first compound 0.03 µM) of 120%, a viability, T/C [5] of 97.9% and a viability, T/C [6] of 75.3%. For the same compound, the viability, T/C [7] was 64.8%, the viability, T/C [8] was 61.1% and the viability, T/C (second compound 10 µM, first compound 0.00949 µM) was 95.6%. The viability, T/C (second compound 10 µM, first compound 0.03 µM) was 114%, the viability, T/C [9] was 98.5% and the viability, T/C [10] was 74.8%. The viability, T/C [11] was 71.8%, the viability, T/C [12] was 69.5% and the viability, T/C (second compound 31.6 µM, first compound 0.00949 µM) was 105%. For the same compound, the viability, T/C (second compound 31.6 µM, first compound 0.03 µM) was 81.1%, the viability, T/C [13] was 79.8% and the viability, T/C [14] was 66.6%. The viability, T/C [15] was 58%, the viability, T/C [16] was 64.3% and the viability, T/C (second compound 100 µM, first compound 0.00949 µM) was 92.1%. For the same compound, the viability, T/C (second compound 100 µM, first compound 0.03 µM) was 95.7%, the viability, T/C [17] was 83% and the viability, T/C [18] was 61.4%. The viability, T/C [19] was 58.5% and the viability, T/C [20] was 61.7%.
Compound `O=C(c1cc(Cc2n[nH]c(=O)c3ccccc23)ccc1F)N1CCN(C(=O)C2CC2)CC1` + CC[C@@]1(O)C(=O)OCc2c1cc1n(c2=O)Cc2cc3c(CN(C)C)c(O)ccc3nc2-1 has an IC50 (second compound 0.003 µM) greater than 30 µM, an IC50 (second compound 0.00949 µM) greater than 30 µM and an IC50 (second compound 0.03 µM) greater than 30 µM. It also gave an IC50 (second compound 0.0949 µM) greater than 30 µM, an IC50 (second compound 0.3 µM) of less than 0.0949 µM and a viability, T/C (second compound 0.003 µM, first compound 0.0949 µM) of 87.4%. The viability, T/C (second compound 0.003 µM, first compound 0.3 µM) was 78%, the viability, T/C (second compound 0.003 µM, first compound 0.949 µM) was 72.9% and the viability, T/C (second compound 0.003 µM, first compound 3 µM) was 68%. The viability, T/C (second compound 0.003 µM, first compound 9.49 µM) was 69.5%, the viability, T/C (second compound 0.003 µM, first compound 30 µM) was 58.2% and the viability, T/C (second compound 0.00949 µM, first compound 0.0949 µM) was 81.5%. It also gave a viability, T/C (second compound 0.00949 µM, first compound 0.3 µM) of 73.7%, a viability, T/C (second compound 0.00949 µM, first compound 0.949 µM) of 62.2% and a viability, T/C (second compound 0.00949 µM, first compound 3 µM) of 59.3%. For the same compound, the viability, T/C (second compound 0.00949 µM, first compound 9.49 µM) was 59.9%, the viability, T/C (second compound 0.00949 µM, first compound 30 µM) was 59% and the viability, T/C (second compound 0.03 µM, first compound 0.0949 µM) was 53.5%. The viability, T/C (second compound 0.03 µM, first compound 0.3 µM) was 59.2%, the viability, T/C (second compound 0.03 µM, first compound 0.949 µM) was 57% and the viability, T/C (second compound 0.03 µM, first compound 3 µM) was 58.4%. For the same compound, the viability, T/C (second compound 0.03 µM, first compound 9.49 µM) was 60.9%, the viability, T/C (second compound 0.03 µM, first compound 30 µM) was 55.3% and the viability, T/C (second compound 0.0949 µM, first compound 0.0949 µM) was 57.5%. The viability, T/C (second compound 0.0949 µM, first compound 0.3 µM) was 53.1%, the viability, T/C (second compound 0.0949 µM, first compound 0.949 µM) was 58.5% and the viability, T/C (second compound 0.0949 µM, first compound 3 µM) was 54.9%. For the same compound, the viability, T/C (second compound 0.0949 µM, first compound 9.49 µM) was 54.6%, the viability, T/C (second compound 0.0949 µM, first compound 30 µM) was 55% and the viability, T/C (second compound 0.3 µM, first compound 0.0949 µM) was 49.3%. The viability, T/C (second compound 0.3 µM, first compound 0.3 µM) was 50.7%, the viability, T/C (second compound 0.3 µM, first compound 0.949 µM) was 50.5% and the viability, T/C (second compound 0.3 µM, first compound 3 µM) was 46.3%. It also gave a viability, T/C (second compound 0.3 µM, first compound 9.49 µM) of 47.8% and a viability, T/C (second compound 0.3 µM, first compound 30 µM) of 38.6%.
Compound `O=C(c1cc(Cc2n[nH]c(=O)c3ccccc23)ccc1F)N1CCN(C(=O)C2CC2)CC1` + Cn1nnc2c(C(N)=O)ncn2c1=O has an IC50 (second compound 1 µM) of 17.7 µM, an IC50 (second compound 3.16 µM) of 22.9 µM and an IC50 (second compound 10 µM) of 26.4 µM. For the same compound, the IC50 (second compound 31.6 µM) was 16.4 µM, the IC50 (second compound 100 µM) was 2.85 µM and the viability, T/C [1] was 70.9%. The viability, T/C [2] was 77.9%, the viability, T/C [3] was 82% and the viability, T/C [4] was 71.9%. For the same compound, the viability, T/C (second compound 1 µM, first compound 9.49 µM) was 56.1%, the viability, T/C (second compound 1 µM, first compound 30 µM) was 44.9% and the viability, T/C [5] was 83.8%. For the same compound, the viability, T/C [6] was 80.2%, the viability, T/C [7] was 92.1% and the viability, T/C [8] was 77.2%. It also gave a viability, T/C (second compound 3.16 µM, first compound 9.49 µM) of 65.3%, a viability, T/C (second compound 3.16 µM, first compound 30 µM) of 45.4% and a viability, T/C [9] of 118%. It also gave a viability, T/C [10] of 95.2%, a viability, T/C [11] of 87.6% and a viability, T/C [12] of 66.2%. It also gave a viability, T/C (second compound 10 µM, first compound 9.49 µM) of 60.9%, a viability, T/C (second compound 10 µM, first compound 30 µM) of 48.1% and a viability, T/C [13] of 82.6%. It also gave a viability, T/C [14] of 107%, a viability, T/C [15] of 80.2% and a viability, T/C [16] of 70.3%. It also gave a viability, T/C (second compound 31.6 µM, first compound 9.49 µM) of 54.1%, a viability, T/C (second compound 31.6 µM, first compound 30 µM) of 45.8% and a viability, T/C [17] of 83.4%. For the same compound, the viability, T/C [18] was 85.6%, the viability, T/C [19] was 72.6% and the viability, T/C [20] was 49.2%. It also gave a viability, T/C (second compound 100 µM, first compound 9.49 µM) of 46.1% and a viability, T/C (second compound 100 µM, first compound 30 µM) of 44.7%.
